Measurements: paper PMC9782470, “Clickable C-Glycosyl Scaffold for the Development of a Dual Fluorescent and [^18F]fluorinated Cyanine-Containing Probe and Preliminary In Vitro/Vivo Evaluation by Fluorescence Imaging” (Pharmaceuticals, 2022)
pIC50: −log10 of the molar value.

Legend:
αvβ3 integrin = target: T1, αvβ3 integrin (Homo sapiens, UniProt P05106+P06756); test: Integrin αvβ3 solid-phase binding assay (competition with coated vitronectin); conditions: coated human vitronectin 1 µg/mL, integrin αvβ3 2 µg/mL, compounds 1.6 nM–20 µM, 1 h room temperature, OD 450 nm, 3 independent series in duplicate, ± SD in Figure 2, read-out: IC50, binding of αvβ3 integrin onto vitronectin
T1 construct: purchased Bio-techne, Lille, France
Description: The affinity of the compounds for integrin protein was evaluated in terms of the half maximal inhibitory concentration (IC50 values) using a solid-phase assay, as previously described by Tobias G. Kapp et al.. Briefly, the surface of Maxisorp microplates (NUNC, ThermoFicher Scientific, Paris, France) was coated with 1 µg/mL human vitronectin (Bio-techne, Lille, France) overnight at +4 °C. The non-specific sites were blocked with a TSB buffer (20 mM Tris-HCl, 150 mM NaCl, 1 mM CaCl2, 1 mM MgCl2, 1 mM MnCl2, pH 7.5, 1% BSA) (Sigma-Aldrich, Saint-Quentin-Fallavier, France) for 1 h at 37 °C. […] After 1 h incubation at room temperature, the plates were washed, and the amount of bound integrin was stained by incubation with 2 µg/mL of mouse anti-human CD51/61 (BD Pharmingen, Paris, France) and 1 µg/mL of anti-mouse IgG horseradish peroxidase conjugate antibody (Bio-techne, France). The enzymatic reaction was carried out in the dark by the addition of the enzyme substrate (Bio-techne, France) and stopped after 10 min by the addition of H2SO4 (Stop Solution, Bio-techne, France). The optical densities were measured at 450 nm. The values were blank subtracted, and the results were expressed as relative absorbance percentage in comparison to the wells containing only integrin αvβ3.
Affinities were estimated from 3 independent series performed in duplicate as IC50 values (i.e., the concentration of the compounds that displaced 50% of integrin binding calculated using one-site fit log-IC50 non-linear analysis regression using the GraphPad Prism 6 software (v 6.05, USA)).
Figure 2 Solid-phase binding assay.

[1] = Absorption and fluorescence measurements; assay type: physicochemical; conditions: for relative fluorescence quantum yield Φfluo: PBS pH 7.4, relative to commercial Cy5.Cl, λex = 640 nm, absorbance lower than 0.1; for Stokes shift Δs fluo / λem / λabs: aqueous PBS buffer 0.01 M, pH 7.4, T = 298 K; for λabs: diluted solution (µM)
Description: Photophysical properties (absorption, excitation, emission, and relative fluorescence quantum yield) of compounds 23 and 24 were measured in an aqueous PBS buffer solution (pH = 7.4, T = 298 K) and compared to the commercially available Cy5 to detect any potential degradation that could occur during the synthesis and purification steps. […] (λabs/λem = 648/662 nm, Δs fluo = 326 cm^−1 for 23, λabs/λem = 644/658 nm, Δs fluo = 330 cm^−1 for 24).
Absorption spectra were recorded in diluted solution (µM) in an aqueous PBS buffer (0.01 M, pH 7.4). Fluorescence quantum yields Φfluo were measured in diluted solutions with an absorbance lower than 0.1 using the following equation: ϕfluo, x=ϕfluo,ref(Gradx/Gradref)(nx2/nref2) where Φfluo is the fluorescence quantum yield; Grad is the gradient from the plot of integrated fluorescence intensity vs. absorbance; n the refractive index of the solvent; and the subscripts x and ref denote sample and reference. The fluorescence quantum yields of 23 and 24 were measured relative to the commercial Cy5.Cl in PBS for which Φfluo,ref = 0.13 [36]. The excitation of the reference and sample compounds was performed at the same wavelength (λex = 640 nm).

[2] = Solubility in aqueous solution; assay type: physicochemical; conditions: result in words
U-87 MG cells = test: Cellular uptake, quantification of Cy5 incorporation; assay type: cell-based, human; conditions: 24 h of incubation; Cy5 fluorescence of DMSO cell lysate (λex 645, λem 680 nm), calibration curve of each compound; n = 3
Description: Cellular uptake was evaluated using a confocal microscopy on U-87 MG spheroids after 1, 4, and 24 h of exposure with conjugates 23 and 24 and c(RGDfK)-Cy5 (25) at 1 µM. The fluorescence signal appeared to be stable over time and the distribution of the compounds was homogeneous over all cells and throughout the spheroids (Figure 3A). These three compounds were localized rapidly in the cell cytoplasm due to receptor internalization after ligand binding. As expected from photophysical properties, the fluorescence signal was higher for compound 24 compared to 23. […] The amount of compounds seemed to decrease slightly at 4 h but stayed relatively stable until 24 h and represented 25.8, 14.7, and 28.6 pmoles/10^6 cells, respectively, for compounds 23, 24 and 25. […]
U-87 MG cells were seeded in 12 multi-well plates at 10 × 10^4 cells/cm^2 and cultivated for 48 h. […] The fluorescence signals of Cy5 in the samples were measured in duplicate at an excitation wavelength of 645/9 nm and an emission wavelength of 680/20 nm (Tecan Infinite M200 Pro spectrofluorometer, Tecan, Männedorf, Switzerland). The fluorescence signals of known concentrations of Cy5-conjugates diluted in DMSO were used to draw a standard calibration curve. The concentration of Cy5 present in the samples (nM) was determined from the linear regression analysis of the standard calibration curve (Equation (1)). […] The results of the cellular uptake were expressed as the concentration of Cy5 (nM) incorporated per one million of cells (Equation (2)). […] (nM) = f (Fluorescence Intensity)(1) [Cy5] […]
Figure 3 Cellular uptake of fluorescent conjugates 23 and 24. […] The intrinsic fluorescence of the compounds corresponds to Cyanine 5 (red fluorescence, λex 631/28 nm, λem 692/40 nm). […] (B) Quantification of Cy5 incorporation by U-87 MG cells at 1, 4, and 24 h of incubation. The amount of each compound was calculated using the fluorescence of Cy5 extrapolated from the calibration curves of each compound and normalized to 10^6 cells. n = 3.

[3] = tested on: orthotopic U-87 MG brain tumor; assay type: in vivo, female athymic nude mice; conditions: 24 h after intravenous administration of 0.5 nmoles; NIRF imaging; average of ratio uptake
Description: (§1) In order to evaluate the in vivo biodistribution and tumor uptake of compound 24, which has the best photophysical and solubility properties in comparison to compound 23, mice bearing ectopic or orthotopic brain tumors were imaged in NIRF using a fluorescent small animal imager. […] Animal experiments were performed in accordance with the protocols approved by the French Ministry of Research after a review by the local animal protection and use committee (APAFIS# 30902). For ectopic tumor biodistribution, a U-87 MG tumor model was established by subcutaneous injection of U-87 MG cells (2 × 10^6 in 100 µL of 5% glucose solution) into the front right flank of female athymic nude mice (Charles Rivers, Wilmington, MA, USA). The mice were subjected to imaging studies when the tumor volume reached 500 mm^3 (3–4 wk after inoculation) at 1, 4, 6, and 24 h after the intravenous administration of the compounds 24 and 25 at 0.5 nmoles in 100 µL of water for injections mixed with ethanol (20% EtOH/80% water). For brain tumor imaging, U-87 MG spheroids of approximatively 500 µm diameter were implanted in the cortex of the right hemisphere and imaged 24 h after the administration of 0.5 nmoles of the compound 24 or 25. In the same manner, major organs were harvested and subjected to small animal NIRF imaging (Fluorvivo, Indec Biosystem, Los Altos, CA, USA). A customized filter set (excitation, 510–550 nm; emission, 630–690 nm) was used for data acquisition. All fluorescence images were acquired with a 1-s exposure. The fluorescence intensity of each tissue was measured after subtraction of the background signal from an ROI of the same size and shape drawn over an area without any tissue using imageJ. Figure 4 Biodistribution of compounds 24 and 25 in tumors and organs. (A) Kinetic distribution of compounds 24 and 25 in ectopic U-87 MG tumors at 1, 4, 6, and 24 h (representative images of the whole mice with the solid arrows showing the ectopic tumors at 24 h). (B) Biodistribution of the compounds in major organs at 24 h after their administration. […] An average of ratio uptake was calculated. […]

ectopic U-87 MG tumors = assay type: in vivo, female athymic nude mice
Description: as §1

[4] = cited from earlier work
Description: Photophysical properties (absorption, excitation, emission, and relative fluorescence quantum yield) of compounds 23 and 24 were measured in an aqueous PBS buffer solution (pH = 7.4, T = 298 K) and compared to the commercially available Cy5 to detect any potential degradation that could occur during the synthesis and purification steps. […] (λabs/λem = 648/662 nm, Δs fluo = 326 cm^−1 for 23, λabs/λem = 644/658 nm, Δs fluo = 330 cm^−1 for 24). Conjugation of the ... || Absorption spectra were recorded in diluted solution (µM) in an aqueous PBS buffer (0.01 M, pH 7.4). Fluorescence quantum yields Φfluo were measured in diluted solutions with an absorbance lower than 0.1 using the following equation: ϕfluo, x=ϕfluo,ref(Gradx/Gradref)(nx2/nref2) where Φfluo is the fluorescence quantum yield; Grad is the gradient from the plot of integrated fluorescence intensity vs. absorbance; n the refractive index of the solvent; and the subscripts x and ref denote sample and reference. The fluorescence quantum yields of 23 and 24 were measured relative to the commercial Cy5 ...

Row | Compound | pIC50 (αvβ3 integrin) | relative fluorescence quantum yield Φfluo [1] [%] | Stokes shift Δs fluo [1] [cm⁻¹] | λem [1] [nm] | λabs [1] [nm] | solubility in aqueous solution [2] | amount of compound incorporated by U-87 MG cells (U-87 MG cells) [pmoles/10^6 cells] | ratio of fluorescence uptake, orthotopic brain tumor to healthy brain [3] [fold] | ratio of fluorescence uptake, ectopic tumor to healthy brain (ectopic U-87 MG tumors; 24 h after intravenous administration of 0.5 nmoles, NIRF imaging, average of ratio uptake) [fold] | route of elimination (ectopic U-87 MG tumors; mouse, in vivo) | fluorescence quantum yield Φfluo of the reference ([4]; PBS) [%] | fluorescence quantum yield Φfluo,ref ([4]; in PBS, as fraction)
1 | CN1\C(=C/C=C/C=C/C2=[N+](CCCCCC(=O)NCCCn3cc(COCC[C@H]4O[C@H](CF)[C@@H](OCc5cn(CCCCCC(=O)NCCCC[C@@H]6NC(=O)[C@@H](Cc7ccccc7)NC(=O)[C@H](CC(=O)O)NC(=O)CNC(=O)[C@H](CCCNC(=N)N)NC6=O)nn5)[C@H]4OCc4cn(CCCCCC(=O)NCCCC[C@@H]5NC(=O)[C@@H](Cc6ccccc6)NC(=O)[C@H](CC(=O)O)NC(=O)CNC(=O)[C@H](CCCNC(=N)N)NC5=O)nn4)nn3)c3ccccc3C2(C)C)C(C)(C)c2ccccc21 [Compound 23] | 8.00 | 8 | 326 | 662 | 648 | poor solubility | 25.8 |  |  |  |  | 
2 | CN1\C(=C/C=C/C=C/C2=[N+](CCCCCC(=O)NCCCn3cc(COCC[C@H]4O[C@H](CF)[C@@H](OCc5cn(CCOCCOCCOCCOCCC(=O)NCCCC[C@@H]6NC(=O)[C@@H](Cc7ccccc7)NC(=O)[C@H](CC(=O)O)NC(=O)CNC(=O)[C@H](CCCNC(=N)N)NC6=O)nn5)[C@H]4OCc4cn(CCOCCOCCOCCOCCC(=O)NCCCC[C@@H]5NC(=O)[C@@H](Cc6ccccc6)NC(=O)[C@H](CC(=O)O)NC(=O)CNC(=O)[C@H](CCCNC(=N)N)NC5=O)nn4)nn3)c3ccccc3C2(C)C)C(C)(C)c2ccccc21 [Compound 24] | 7.80 | 14 | 330 | 658 | 644 |  | 14.7 | 40 | 100 | urinary tract and liver metabolism |  | 
3 | CN1C(=CC=CC=CC2=[N+](CCCCCC(=O)NCCCC[C@@H]3NC(=O)[C@@H](Cc4ccccc4)NC(=O)[C@H](CC(=O)O)NC(=O)CNC(=O)[C@H](CCCNC(=N)N)NC3=O)c3ccccc3C2(C)C)C(C)(C)c2ccccc21 [Compound 25] | 5.07 |  |  |  |  |  | 28.6 |  |  |  |  | 
4 | CN1/C(=C/C=C/C=C/C2=[N+](CCCCCC(=O)O)c3ccccc3C2(C)C)C(C)(C)c2ccccc21 [Cy5] |  |  |  |  |  |  |  |  |  |  | 13 | 0.13
